Key:
TIME cells [1] = assay: Cell death, Annexin V and Caspase 3/7 live cell imaging, TIME cells; assay type: cell-based, human
Method: TICAE and TIME cells were seeded in 96 well plates at a density of 10000 cells/well in 8 biological replicates. After three days, cells were at 100% confluence. At 30 minutes before X-ray exposure, cells were refreshed with 200 μl medium supplemented with Caspase 3/7 reagent (1:1000 dilution) and Annexin V reagent (1:200 dilution) (Essen Bioscience, United Kingdom) with or without 100 μM TAT-Gap19 (Genosphere Biotechnologies, Paris, France). Fluorescence signals were measured from 4 h until 100 h after irradiation by imaging every 2 hours using the IncuCyte ZOOM® system (Essen BioScience, Ann Arbor, Mich., USA). Different channels (TRITC, FITC and phase contrast) and a 10× objective were used. Spectral unmixing set as 8% of red removed from green was applied. The IncuCyte software's processing definition was set to recognize red (Annexin V) and green (Caspase 3/7) stained cells, making use of the Top-Hat background subtraction method. Fluorescence signal was normalized to cell count.

TICAE cells [2] = assay: Intracellular ROS, CM-H2DCFDA flow cytometry, TICAE cells; assay type: cell-based, human; settings: 100 μM TAT-Gap19, 0.1 Gy, 45 min
Method: TICAE and TIME cells were seeded in a 6-well plate at a density of 250000 cells/well. Three days later, cells reached 100% confluence. At 30 minutes before X-ray exposure (0.1 and 5 Gy), cells were washed with PBS to remove traces of the original medium. Afterwards, HMS supplemented with 25 mM HEPES (Sigma-Aldrich Co. LCC, Diegem, Belgium) and 10 μmol/L of the CM-H2DCFDA dye (Sigma-Aldrich Co. LCC, Diegem, Belgium) was added to the cells, and 100 μM TAT-Gap19 (Genosphere Biotechnologies, Paris, France) was added to block the Cx43 hemichannels. After irradiation, cells were washed with PBS and a 0.05% trypsin solution supplemented with 0.02% EDTA was used to detach the cells, followed by a 5 minute incubation time (37° C., 5% CO2). After trypsinization, the cells were transferred into a 1.5 mL tube and centrifuged for […] at 200 RCF. The supernatant was discard and the pellet was re-suspended in MSS without Ca2+ and Mg2+(Sigma-Aldrich Co. LCC, Diegem, Belgium). Finally, 1 μg/mL PI was added to each sample to exclude the dead cells. A positive control, 20 μmol/L tert-butyl hydroxyperoxide (tBHP), was added to the cells and incubated for 15 min. Intracellular ROS was assessed by analyzing the fluorescent signals using BD Accuri™ c6 Flow Cytometry (BD Biosciences, San Jose, Calif. USA). At least 10 000 events were measured. […]

TIME cells [3] = assay: Senescence-associated β-galactosidase CPRG assay, TIME cells; assay type: cell-based, human
Method: (§1) TICAE and TIME cells were seeded in 96 well plates at a density of 10000 cells/well in 16 replicates. Three days after, cells were at 100% confluent. At 30 minutes before X-ray exposure, the cells were refreshed with 150 μl medium alone or with medium supplemented with 100 μM TAT-Gap19 (Genosphere Biotechnologies, Paris, France). For 7 d and 9 d post irradiation experiments, the medium was refreshed once, while for 14 d post irradiation experiment the medium was refreshed twice with 200 μl medium alone or with medium supplemented with 100 μM TAT-Gap19. At 7, 9 and 14 days post irradiation, cell number was determined using an Incucyte® ZOOM life cell analysis system and related software (Essen Bioscience, Hertfordshire, United Kingdom). Afterwards, the senescence associated β-galactosidase activity in the cells was determined using the chlorophenol red β-D-galactopyranoside (CPRG) assay as described previously. The cells were washed with PBS and lysed using M-PER™ buffer (Thermo Fisher Scientific, Asse, Belgium). Subsequently, 1×CPRG substrate (2 mM Chloropenol Red β-D-galactopyranoside in CPRG assay buffer containing 50 mM KPO4, 1 mM MgCl2, pH 6) (Sigma-Aldrich, Overijse, Belgium) was added to each well and the plates incubated for 18 h at 37° C. without CO2. A CLARIOstar® microplate reader (BMG Labtech, Temse, Belgium) was used to measure the absorbance at 570 nm.

RBE4 cells = assay: γ-H2AX counts after local 3×3 mm X-ray irradiation (irradiated and bystander zones), RBE4 cells; assay type: cell-based, rat; settings: 1 Gy, 3 h post-irradiation, Cbx 50 μM, Gap26 161 μM, TAT-Gap19 200 μM, Xestospongin C 5 μM
Method: A defined area of the cell culture dishes were exposed to X-rays (1Gy or 20 Gy) by using a small animal radiation research platform (SARRP, Xstrahl, 220 kV, 13 mA), making use of a 3×3 mm collimator. Whole dish irradiation was done using a 10×10 cm broad-beam collimator, while localized Irradiation was performed with a 3×3 mm collimator. A Gafchromic RTQA2 film, with a sensitivity of 0.02 Gy, was placed underneath the cell dishes in order to delineate the irradiated zone.
Cells were fixed for 25 min with 4% formaldehyde (VWR) and blocked for 30 min with blocking buffer (5% normal goat serum, 1% bovine serum albumin (BSA), 0.2% Triton X-100 in PBS D+). Overnight incubation with primary antibody (1/500 anti-γ-H2AX in dilution buffer, 1/10 blocking buffer in PBS D+) was followed by a 1 h incubation with 1/400 XX-biotin-goat-anti-mouse antibody in dilution buffer, followed by a 1 h incubation with 1/400 streptavidin-alexa488 in PBS D+. Nuclei were stained with 1 μg/mL DAPI in PBS D+ for 10 min and cells were kept in PBS D+ supplemented with NaN3 at 4° C. All steps except the overnight incubation which was carried out at 4° C., were carried out at room temperature and cell cultures were rinsed thoroughly with PBS D+ between all incubation steps. Imaging was performed with an automated BD Pathway 435 imaging system (10× objective, 10×10 montage resulting in an overall image size of 8.5×6.5 mm). We then quantified the number of γ-H2AX-foci positive nuclei in the directly irradiated and bystander areas and expressed the count as a percentage relative to the number of nuclei and subtracted the percentage of background γ-H2AX signal in non-irradiated paired control cultures for each experiment. For counting γ-H2AX foci, images were thresholded to remove background pixel noise below the foci level. Where applicable, results were normalized against vehicle (bar charts with a 100% vehicle bar without statistical variability or a horizontal line).

TICAE cells [4] = assay: Senescence-associated β-galactosidase CPRG assay, TICAE cells; assay type: cell-based, human
Method: as §1

[5] = 100 μM TAT-Gap19, 0.1 Gy and 5 Gy, 14 d p.i.

TAT-Gap19: connexin mimetic peptide, amino-acids 128-136 of the CL of Cx43 (SEQ ID NO: 2), Gap19 linked to TAT sequence; Cx43 hemichannel inhibitor (YGRKKRRQRRRKQIEIKKFK)
Annexin V (TIME cells [1]; 100 μM TAT-Gap19, 0 Gy, 12-24 h p.i. time window): transiently reduced Annexin V
Annexin V elevation (TIME cells [1]; 100 μM TAT-Gap19, 5 Gy, 4-48 h p.i. time window): significantly reduced Annexin V elevation
intracellular ROS generation (flow cytometry) (TICAE cells [2]): significantly reduced intracellular ROS generation
SA β-gal activity (TIME cells [3]; 100 μM TAT-Gap19, 0 Gy, 0.1 Gy and 5 Gy, 7 d p.i.): significantly reduced SA β-gal activity in all conditions
SA β-gal activity (radiation responses) (TIME cells [3]; [5]): significantly inhibited these responses
SA β-gal activity (TIME cells [3]; 100 μM TAT-Gap19, 5 Gy, 9 d p.i.): significantly reduced SA β-gal activity
SA β-gal activity (TIME cells [3]; 100 μM TAT-Gap19, control condition, 9 d p.i.): unexpectedly increased SA β-gal activity
γ-H2AX counts in the bystander zone (normalized to vehicle) (RBE4 cells): significantly inhibited
γ-H2AX counts in the irradiated zone (normalized to vehicle) (RBE4 cells): significantly inhibited
SA β-gal activity (TICAE cells [4]; 100 μM TAT-Gap19, 0 Gy and 5 Gy, 9 d p.i.): significantly reduced SA β-gal activity
SA β-gal activity (radiation responses) (TICAE cells [4]; [5]): significantly inhibited these responses
SA β-gal activity (TICAE cells [4]; 100 μM TAT-Gap19, control, 0.1 Gy and 5 Gy, 7 d p.i.): significantly reduced SA β-gal activity
